Test [1] deals with Jurkat T cells. Nature of the test: Western blot of proteasome target proteins in Jurkat T cells. It is filed as cell-based, human. The settings on record: for increase of IκB-α protein levels: at 6 hours. How it is done: (§1) Cell Culture, Cell Extract Preparation, and Western Blot Assay. Human leukemia Jurkat T and prostate cancer LNCaP cells were cultured in RPMI 1640 medium supplemented with 10% fetal calf serum, 100 units/ml of penicillin, and 100 μg/ml streptomycin. Human immortalized, non-transformed NK cells (YT cell line) (38) were cultured in RPMI 1640 supplemented with 1 mM MEM sodium pyruvate solution, 0.1 mM MEM non-essential amino acids solution, 10% fetal calf serum. 100 units/ml penicillin, and 100 μg/ml streptomycin. Normal (WI-38) and simian virus 40 (SV40)-transformed (VA-13) human fibroblasts were grown in Dulbecco's modified Eagle's medium supplemented with 10% fetal calf serum, 100 units/ml of penicillin and 100 μg/ml of streptomycin. All cells were maintained at 37° C. in a humidified incubator with an atmosphere of 5% CO2. A whole cell extract was prepared in accordance with An et al. (An, B. et al. Cell Death Differ, 1998, 5:1062-75). Briefly, cells were harvested, washed with PBS twice, and homogenized in a lysis buffer [50 mM Tris-HCl (pH 8.0), 5 mM EDTA, 150 mM NaCl, 0.5% NP-40, 0.5 mM phenylmethylsulfonyl fluoride, and 0.5 mM dithiothreitol] for 30 min at 4° C. Afterwards, lysates were centrifuged at 12,000×g for 15 min at 4° C., and the supernatants were collected as whole cell extracts. Equal amounts of protein extract (60 μg) were resolved by SDS-polyacrylamide gel electrophoresis and transferred to a nitrocellulose membrane using a Semi-Dry Transfer system (BIO-RAD, Hercules, Calif.). Jurkat T, LNCaP, or DU-145 cells were treated with various concentrations of synthetic or natural tea polyphenols for indicted hours. The enhanced chemiluminescence (ECL) Western blot analysis was then performed using specific antibodies to the proteins of interest (p^27kip, IκB-α, PARP, Bax or actin). The ratio of p27 or IκB-α to the corresponding actin was determined by scanning intensities of the protein bands.
Immortalized, non-transformed normal natural killer (NK) cells (YT line) (Drexler, H. G. et al. Leuk Res, 2000, 24:881-911) and human leukemic Jurkat T cells (as a control) were treated with either (−)-EGCG (as a comparison) or (−)-EGCG-amide for up to 12 hour. […] In contrast, IκB-α expression in non-transformed NK cells was unchanged during each treatment, although the basal level (and the mobility) of IκB-α protein was higher in NK cells (FIGS. 13A and 13B).
Having discovered that the synthetic GTP analogs are potent and specific inhibitors of the proteasomal chymotrypsin-like activity in vitro (FIGS. 16A, 17A, 17B, and 17C), it was then determined whether the synthetic compounds could also be effective in inhibiting intact tumor cell proteasome activity. Because inhibition of the proteasome activity in tumor cells would result in increased levels of proteasome target proteins, levels of p27 and IκB-α proteins were measured by Western blot assay in Jurkat T cells treated with each GTP. After a 12 hour treatment, (+)-EGCG at 10 μM accumulated p27 and IκB-α levels by 3.5- and 3.1-fold, respectively (FIG. 18A). In comparison, the natural (−)-EGCG accumulated p27 and IκB-α, to a slightly lesser extent, by 2.7- and 2.1-fold, respectively (FIG. 18A). In addition, synthetic (+)-GCG increased p27 and IκB-α levels by 3.7- and 3.3-fold, respectively, similar to the results from (−)-GCG treatment (FIG. 18A).

The subject of test [2] is DU145 cells. Kind of test: Western blot of Bax and PARP in DU145 cells. The class given is cell-based, human. As to conditions: 10 μM, 24 hours. How it is done: Cell Culture, Cell Extract Preparation, and Western Blot Assay. Human leukemia Jurkat T and prostate cancer LNCaP cells were cultured in RPMI 1640 medium supplemented with 10% fetal calf serum, 100 units/ml of penicillin, and 100 μg/ml streptomycin. Human immortalized, non-transformed NK cells (YT cell line) (38) were cultured in RPMI 1640 supplemented with 1 mM MEM sodium pyruvate solution, 0.1 mM MEM non-essential amino acids solution, 10% fetal calf serum. 100 units/ml penicillin, and 100 μg/ml streptomycin. Normal (WI-38) and simian virus 40 (SV40)-transformed (VA-13) human fibroblasts were grown in Dulbecco's modified Eagle's medium supplemented with 10% fetal calf serum, 100 units/ml of penicillin and 100 μg/ml of streptomycin. All cells were maintained at 37° C. in a humidified incubator with an atmosphere of 5% CO2. A whole cell extract was prepared in accordance with An et al. (An, B. et al. Cell Death Differ, 1998, 5:1062-75). […] The ratio of p27 or IκB-α to the corresponding actin was determined by scanning intensities of the protein bands.
Exponentially growing LNCaP and DU-145 prostate cells were harvested and the levels of Bax protein was detected by Western blot analysis (FIG. 20A). […]

The subject of test [3] is 26S proteasome in a Jurkat cell lysate. Nature of the test: Chymotrypsin-like activity of 26S proteasome in Jurkat cell lysate. It is filed as biochemical, human. As to conditions: 10 μM. Here is the method:
To determine the specificity of the synthetic GTP analogs, their effects were tested on the chymotrypsin-like and trypsin-like activities of the 26S proteasome in a Jurkat cell lysate. […] (+)-GCG at the same concentration inhibited ˜50% of the chymotrypsin-like activity. The potencies of (+)-EGCG and (+)-GCG were similar to those of their natural partners, respectively (FIG. 17A). […] Furthermore, none of the synthetic or control natural compounds could inhibit more than 15% of activity of a purified calpain enzyme (FIG. 17C). […] Values are mean triplicates and error bars denote standard deviations.

For test [4], the target named is purified 20S proteasome (UniProt Q9P992). Kind of test: Inhibition of chymotrypsin-like activity of purified 20S proteasome (source not stated). The class given is biochemical. Details: other: 1 μM; other: 10 μM. The settings on record: 1 μM. How it is done:
(§2) Inhibition of purified 20S proteasome activity by natural or synthetic GTPs. Purified prokaryotic (0.5 μg) or eukaryotic (0.02 μg) 20S proteasome was incubated with 20 μM fluorogenic peptide substrate, Suc-Leu-Leu-Val-Tyr-AMC for 30 min at 37° C. in […] of assay buffer (50 mM Tris-HCl, pH 7.5), with or without a natural or synthetic tea polyphenol. After incubation, production of hydrolyzed 7-amido-4-methyl-coumarin (AMC) groups was measured using a multi-well plate VERSAFLUOR Fluorometer with an excitation filter of 380 nm and an emission filter of 460 nm (BIO-RAD), and a multi-well plate reader Wallac 1420 VICTORTM^2 with an excitation filter of 355 nm and an emission filter of 460 nm (EG&G WALLAC).

Test [5] shares this target. The test is described as above. The class given is biochemical. Details: IC50; other: purified 20S proteasome, multiple concentrations. As to conditions: purified 20S proteasome, multiple concentrations. How it is done:
as §2

The subject of test [6] is NK cells (YT cell line). Kind of test: Western blot of proteasome target proteins in non-transformed NK cells (YT line). The class given is cell-based, human. The settings on record: treatment up to 12 hour. How it is done:
as §1, with “bands. […]” for “bands.”

For test [7], the system named is purified 20S proteasome. As to conditions: natural (−)-EGCG; cited from earlier work.
Test [8] concerns MCF-7 cells. Nature of the test: Proteasome inhibition / p27 accumulation in MCF-7 cells. The class given is cell-based, human.

Like-named read-outs stand apart in the source and are kept apart here. Where only a bound is given, the exact number is not on record here.

purified 20S proteasome (UniProt Q9P992), sequence (Q9P992 whole entry): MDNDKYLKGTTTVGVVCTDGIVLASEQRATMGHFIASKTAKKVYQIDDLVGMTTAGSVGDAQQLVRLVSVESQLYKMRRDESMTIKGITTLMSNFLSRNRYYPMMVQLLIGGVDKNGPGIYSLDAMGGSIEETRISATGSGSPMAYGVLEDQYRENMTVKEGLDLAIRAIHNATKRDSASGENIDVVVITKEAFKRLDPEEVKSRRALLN

`O=C(OC1Cc2c(O)cc(O)cc2OC1c1cc(O)c(O)c(O)c1)c1cc(O)c(O)c(O)c1` (single isomer, unassigned; (+)) [(+)-EGCG]: in test [1] (10 μM, 12 hour treatment), the “accumulation of IκB-α levels” value was determined as 3.1 fold, the “accumulation of p27 levels” value came out at 3.5 fold, the “increase in IκB-α levels as compared to (−)-EGCG” value turned out to be 47% and the “increase in p27 levels as compared to (−)-EGCG” value is roughly 30%. Besides, the Bax protein levels entry in test [2] is reported as “neither (+)-EGCG nor (−)-EGCG was able to increase the levels of Bax protein”. The “inhibition of chymotrypsin-like activity of 26S proteasome” value in test [3] is 76%. Further, in test [4], the “inhibition of proteasomal activity” value worked out at 86%. In addition, in test [5] (read-out: IC50), the concentration for half-maximal inhibition (IC50) came out at 210 nM.

`O=C(OC1Cc2c(O)cc(O)cc2OC1c1cc(O)c(O)c(O)c1)c1cc(O)c(O)c(O)c1` (single isomer, unassigned; (+)) [(+)-GCG]: in test [1] (10 μM, 12 hour treatment), the “accumulation of IκB-α levels” value worked out at 3.3 fold and the “accumulation of p27 levels” value turned out to be 3.7 fold. In test [3], the “inhibition of chymotrypsin-like activity of 26S proteasome” value is on record as roughly 50%. Moreover, the “inhibition of proteasomal activity” value in test [4] was found to be 70%. Moreover, the 50% inhibitory concentration (IC50) in test [5] was found to be 410 nM.

As for `O=C(O[C@@H]1Cc2c(O)cc(O)cc2O[C@@H]1c1cc(O)c(O)c(O)c1)c1cc(O)c(O)c(O)c1` [(−)-EGCG, (−)-epigallocatechin-3-gallate, reference compound], in test [1] (10 μM, 12 hour treatment), the “accumulation of IκB-α levels” value is recorded as 2.1 fold and the “accumulation of p27 levels” value is listed as 2.7 fold. In test [1] (treatment up to 12 hour), the “increase of IκB-α protein levels” value is given as “up to 6 fold” and the “increase of p27 levels” value came out at 17 fold. Further, in test [6], the IκB-α expression result is “unchanged” and the p27 expression result is “no p27 expression was detected”. Besides, in test [2], the Bax protein levels result is on record as “neither (+)-EGCG nor (−)-EGCG was able to increase the levels of Bax protein”. The half-inhibitory concentration (IC50) in test [7] was 100 to 200 nM.

For `O=C(N[C@@H]1Cc2c(O)cc(O)cc2O[C@@H]1c1cc(O)c(O)c(O)c1)c1cc(O)c(O)c(O)c1` [(−)-EGCG-amide, (−)-[2R,3R]-N-[5,7-Dihydroxy-2-(3,4,5-trihydroxyphenyl)-chroman-3-yl]-3,4,5-trihydroxybenzamide], in test [1] (treatment up to 12 hour), the “increase of IκB-α protein levels” value is no more than 8 fold. Moreover, the IκB-α expression result in test [6] is recorded as “unchanged”. Moreover, the “inhibition of proteasome activity / accumulation of p27” value in test [8] is “able to inhibit the proteasome activity”.

Values taken from patent publication US9399631B2, “Polyphenol proteasome inhibitors, synthesis, and methods of use” (UNIVERSITY OF SOUTH FLORIDA, priority 2003, dated 2016).
